Article PMC7187312 (The New Phytologist, 2020)

System: Spinacia oleracea PM H^+-ATPase preincubated with FC/14-3-3 or TeA/14-3-3
Type: biochemical

For `C=CC(C)(C)OC[C@H]1O[C@H](O[C@@H]2C3=C([C@H](C)COC(C)=O)C[C@H](O)[C@]3(C)/C=C3/[C@@H](COC)CC[C@H]3[C@@H](C)[C@H]2O)[C@H](O)[C@@H](OC(C)=O)[C@@H]1O` [FC, Fusicoccin], the “effect on PM H^+-ATPase activity” value was “activate” and the specific activity was 44.1 Pi mg^−1 protein min^−1.
